In patent publication US12559464B2, “Quinazolinone dione compounds and uses thereof” (Edgewise Therapeutics, Inc., priority 2023, dated 2026):

Assays:
[1] = system: myosin ATPase, Rabbit Psoas myofibrils; test: Myofibril ATPase assay, rabbit psoas (skeletal) myofibrils; assay type: biochemical; details: concentration required to reduce myosin ATP-ase activity by 25%; Rabbit Psoas Prep pCa 25 GEOM_MEAN
Experimental: [Worded in the source for another species; this species is reported under the same test.] (§1) Myofibril ATPase assays are known in the art to be useful in evaluating small molecules for the treatment of HCM and other cardiac indications. Myosin ATPase activity is assessed by using a coupled reaction system, in which ADP generated by the myosin ATPase function is coupled to the disappearance of NADH through the pyruvate kinase/lactate dehydrogenase (PK-LDH) system. ATPase activity produces ADP, which is used as a substrate for PK to produce pyruvate and regenerate ATP. The pyruvate is then used as a substrate by LDH to oxidize NADH to NAD+. The rate of the reaction is monitored through the time-dependent disappearance of NADH using absorbance at 340 nm, which, when the couple system is in stoichiometric excess, is directly correlated to the ATPase activity of the myosin. Inhibition of ATPase activity by the assayed compounds is indicated by a reduced rate of NADH loss, relative to vehicle-treated controls, over the experimental time window. Porcine Ventricle are the primary sources of myofibril material.
(§2) Materials: The following stock solutions and reagents were used in the Myofibril ATPase Assay: Stock Solutions; PIPES, 200 mM and 120 mM in H2O, pH 7.0; MgCl2 in H2O, 200 mM; PM12 Buffer, 10×: 120 mM PIPES (from 200 mM stock), 20 mM MgCl2 (from 200 mM stock); PBS Buffer, 1X: 135 mM NaCl, […], 10 mM Na(PO4)2, 1.8 mM K2(PO4), pH 7.4; EGTA in H2O, 250 mM; CaCl2) in H2O, 500 mM; DTT in H2O, 1 M; BSA in H2O, 10 mg/mL; ATP in 1×PBS, 50 mM; NADH in 1X PM12 and 1 mM DTT, 26 mM; PEP in 1X PM12, 78 mM, pH 7.0.
(§3) Stock Solutions of pCa buffer. Combine PIPES, CaCl2, and EGTA solutions with water. Adjust pH to 7.0 and bring final volume to 100 mL.
(§4) Buffer A & Buffer B. Prepare buffers A and B according to the table below.
(§5) Myofibril ATPase Assay Procedure: BSA, ATP, NADH, PEP, and DTT solutions were thawed at room temperature, then transferred to ice. Pellet-frozen myofibrils were transferred with approximately twice the required volume into a sufficiently large tube and capped. Myofibrils were thawed by rolling in a water bath for approximately 15 min at room temperature and cooled on ice. Buffers A and B were prepared by adjusting volumes as necessary for required number of wells and stored on ice. 0.5 μL of the compounds to be assayed were added into wells. 25 μL of Buffer A was dispensed into the wells, followed by 25 μL of Buffer B. The wells were measured for absorbance at 340 nm, using a kinetic protocol in which the wells are read every 1.5-2 min for 75 min. Assay data analysis was performed using a python script that filtered the raw data to retain those points falling between a starting and ending time and between a maximum and minimum absorbance, then used the filtered time-domain 340 nm absorbance data in each well to calculate a slope via linear regression analysis in units of mAU/min. Compound slopes were normalized between 100% and 0% activity, where 100% represented the slope of wells containing only compound vehicle, and fit to a 4-parameter logistic model. In addition to the fit parameters, the EC25% values were calculated, relative to the 100% normalized value. Additionally, the Y125 values were calculated for compounds that increased myosin ATP-ase activity. Fit parameters, calculated effective concentrations, filtered raw data, and calculated slopes were exported, in addition to compound-specific graphs of normalized ATPase activity versus concentration in μM. Each value reported in Table 8 is either a Y75 value or a Y125 value. Values without pound sign, #, are Y75 values, which reflect the concentration required to reduce myosin ATP-ase activity by 25% (e.g., Y-axis activity value is 75% of initial value), relative to myosin ATP-ase activity in the absence of exogenous compound. […]

[2] = system: myosin ATPase, Porcine Atria myofibrils; test: Myofibril ATPase assay, porcine atria myofibrils; assay type: biochemical; details: concentration required to reduce myosin ATP-ase activity by 25%; Porcine Atria Prep pCa 25 GEOM_MEAN
[3] = target: T1, myosin ATPase, Porcine Ventricle myofibrils (Sus scrofa, UniProt P79293); test: Myofibril ATPase assay, porcine ventricle myofibrils; assay type: biochemical, porcine (Yucatan minipigs); details: concentration required to reduce myosin ATP-ase activity by 25%; Porcine Ventricle Prep pCa 25 GEOM_MEAN
T1 construct: Myofibrils from porcine cardiac muscle was isolated from the left ventricle of Yucatan minipigs; tissue Exemplar Genetics; host or cells: left ventricle of Yucatan minipigs, myofibrils
T1 sequence (P79293 whole entry): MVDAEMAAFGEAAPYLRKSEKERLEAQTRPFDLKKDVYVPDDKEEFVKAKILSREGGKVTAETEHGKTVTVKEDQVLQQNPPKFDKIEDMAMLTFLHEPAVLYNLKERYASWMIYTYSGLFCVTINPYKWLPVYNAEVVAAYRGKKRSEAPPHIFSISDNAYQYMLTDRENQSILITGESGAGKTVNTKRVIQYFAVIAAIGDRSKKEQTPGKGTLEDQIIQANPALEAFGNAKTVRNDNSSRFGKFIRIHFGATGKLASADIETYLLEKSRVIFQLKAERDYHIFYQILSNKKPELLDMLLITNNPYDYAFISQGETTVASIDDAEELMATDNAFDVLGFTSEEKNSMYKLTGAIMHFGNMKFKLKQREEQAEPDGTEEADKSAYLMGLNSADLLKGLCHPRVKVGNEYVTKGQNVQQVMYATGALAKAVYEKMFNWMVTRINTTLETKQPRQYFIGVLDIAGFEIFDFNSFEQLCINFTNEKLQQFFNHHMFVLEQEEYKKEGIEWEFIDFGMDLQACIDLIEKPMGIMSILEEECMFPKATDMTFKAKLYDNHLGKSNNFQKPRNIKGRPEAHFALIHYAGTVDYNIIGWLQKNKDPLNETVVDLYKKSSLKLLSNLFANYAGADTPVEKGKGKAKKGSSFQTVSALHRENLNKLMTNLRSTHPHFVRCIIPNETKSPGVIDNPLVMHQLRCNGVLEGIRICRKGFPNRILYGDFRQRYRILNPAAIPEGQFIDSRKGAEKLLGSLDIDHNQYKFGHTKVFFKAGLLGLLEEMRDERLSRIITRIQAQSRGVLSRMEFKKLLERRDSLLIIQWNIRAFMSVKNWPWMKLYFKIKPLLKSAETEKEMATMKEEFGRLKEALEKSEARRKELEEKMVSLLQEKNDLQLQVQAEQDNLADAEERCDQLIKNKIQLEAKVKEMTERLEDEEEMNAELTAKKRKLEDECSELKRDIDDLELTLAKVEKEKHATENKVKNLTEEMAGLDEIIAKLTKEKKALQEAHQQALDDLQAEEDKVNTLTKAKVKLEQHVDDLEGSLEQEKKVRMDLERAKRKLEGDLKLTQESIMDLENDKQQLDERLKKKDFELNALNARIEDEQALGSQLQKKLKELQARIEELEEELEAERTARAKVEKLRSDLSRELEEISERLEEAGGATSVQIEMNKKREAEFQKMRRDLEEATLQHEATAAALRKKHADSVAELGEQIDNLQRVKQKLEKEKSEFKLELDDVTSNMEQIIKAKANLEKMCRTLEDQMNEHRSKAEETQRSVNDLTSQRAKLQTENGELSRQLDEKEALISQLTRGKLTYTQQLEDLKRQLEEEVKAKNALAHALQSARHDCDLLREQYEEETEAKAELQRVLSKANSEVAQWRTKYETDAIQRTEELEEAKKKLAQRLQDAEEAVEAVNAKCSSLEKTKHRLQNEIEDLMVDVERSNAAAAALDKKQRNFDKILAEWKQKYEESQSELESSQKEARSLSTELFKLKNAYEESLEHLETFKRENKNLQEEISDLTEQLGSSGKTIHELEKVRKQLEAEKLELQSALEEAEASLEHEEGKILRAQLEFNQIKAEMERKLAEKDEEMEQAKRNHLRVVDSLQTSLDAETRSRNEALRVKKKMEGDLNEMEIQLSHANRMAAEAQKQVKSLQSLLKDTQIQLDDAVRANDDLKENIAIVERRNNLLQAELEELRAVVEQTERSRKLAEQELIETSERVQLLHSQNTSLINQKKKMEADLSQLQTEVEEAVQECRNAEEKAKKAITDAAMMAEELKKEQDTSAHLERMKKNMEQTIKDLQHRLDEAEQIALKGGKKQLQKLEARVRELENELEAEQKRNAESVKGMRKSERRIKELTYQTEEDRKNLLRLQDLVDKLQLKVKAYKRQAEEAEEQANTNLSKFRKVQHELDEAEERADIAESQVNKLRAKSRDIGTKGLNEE
Experimental: as §1, §2, §3, §4, §5

Structure (SMILES)	Rabbit Psoas EC25 (Y75 value) [1] [µM]	Porcine Atria EC25 (Y75 value) [2] [µM]	Porcine Ventricle EC25 (Y75 value) [3] [µM]
C[C@@H](NC(=O)Cn1c(=O)[nH]c2ccc(F)cc2c1=O)c1ncc(C#N)cn1 (single isomer, unassigned) [Compound 1]	0.59	0.699	20.04
C[C@H](NC(=O)Cn1c(=O)[nH]c2ccc(F)cc2c1=O)c1ncc(C#N)cn1 (single isomer, unassigned) [Compound 2]	86.83	24.53	100
C[C@@H](NC(=O)Cn1c(=O)[nH]c2ccc(F)c(F)c2c1=O)c1ccc(C#N)nn1 (single isomer, unassigned) [Compound 3]	2.538	1.074	100
C[C@H](NC(=O)Cn1c(=O)[nH]c2ccc(F)c(F)c2c1=O)c1ccc(C#N)nn1 (single isomer, unassigned) [Compound 4]	0.204	0.178	4.869
C[C@@H](NC(=O)Cn1c(=O)[nH]c2ccc(F)cc2c1=O)c1ncc(C#N)cc1F (single isomer, unassigned) [Compound 7]	5.692	0.3543	1.467
C[C@H](NC(=O)Cn1c(=O)[nH]c2ccc(F)cc2c1=O)c1ncc(C#N)cc1F (single isomer, unassigned) [Compound 8]	0.108	0.094	0.448
Cc1c(F)ccc2[nH]c(=O)n(CC(=O)N[C@@H]3CCc4cc(C#N)cnc43)c(=O)c12 (single isomer, unassigned) [Compound 9]	0.631	0.078	0.547
Cc1cc(C#N)cnc1[C@@H](C)NC(=O)Cn1c(=O)[nH]c2ccc(F)c(F)c2c1=O (single isomer, unassigned) [Compound 13]	0.043	0.048	0.119
Cc1cc(C#N)cnc1[C@H](C)NC(=O)Cn1c(=O)[nH]c2ccc(F)c(F)c2c1=O (single isomer, unassigned) [Compound 14]	21.27	5.931	23.76
C[C@@H](NC(=O)Cn1c(=O)[nH]c2ccc(C#N)cc2c1=O)c1ncc(C#N)cc1F (single isomer, unassigned) [Compound 15]	100	4.31	100
C[C@H](NC(=O)Cn1c(=O)[nH]c2ccc(C#N)cc2c1=O)c1ncc(C#N)cc1F (single isomer, unassigned) [Compound 16]	5.743	0.57	14.04
C[C@@H](NC(=O)Cn1c(=O)[nH]c2ccc(F)c(F)c2c1=O)c1ccc(C#N)cn1 (single isomer, unassigned) [Compound 17]	9.016	0.427	10.16
C[C@H](NC(=O)Cn1c(=O)[nH]c2ccc(F)c(F)c2c1=O)c1ccc(C#N)cn1 (single isomer, unassigned) [Compound 18]	0.512	0.378	5.522
C[C@@H](NC(=O)Cn1c(=O)[nH]c2ccc(F)c(C#N)c2c1=O)c1ncc(C#N)cc1F (single isomer, unassigned) [Compound 3001]	–	5.34	100.00
C[C@H](NC(=O)Cn1c(=O)[nH]c2ccc(F)c(C#N)c2c1=O)c1ncc(C#N)cc1F (single isomer, unassigned) [Compound 3002]	–	0.11	0.24
Cc1ccc2[nH]c(=O)n(CC(=O)N[C@H](C)c3ncc(C#N)cc3F)c(=O)c2c1F (single isomer, unassigned) [Compound 3003]	–	1.32	63.05
Cc1ccc2[nH]c(=O)n(CC(=O)N[C@@H](C)c3ncc(C#N)cc3F)c(=O)c2c1F (single isomer, unassigned) [Compound 3004]	–	0.18	0.51
C[C@H](NC(=O)Cn1c(=O)[nH]c2ccccc2c1=O)c1cccc2ccccc12 (single isomer, unassigned) [Compound 5002]	100	–	–
C[C@H](NC(=O)Cn1c(=O)[nH]c2cccc(Cl)c2c1=O)c1ccc(F)cc1F [Compound 136, (S)-2-(5-chloro-2,4-dioxo-1,4-dihydroquinazolin-3(2H)-yl)-N-(1-(2,4-difluorophenyl)ethyl)acetamide]	0.591	–	0.256
C[C@H](NC(=O)Cn1c(=O)[nH]c2ccccc2c1=O)c1ccc(F)cc1F [Compound 167, (S)-N-(1-(2,4-difluorophenyl)ethyl)-2-(2,4-dioxo-1,4-dihydroquinazolin-3(2H)-yl)acetamide]	0.52	–	7.022
CC(NC(=O)Cn1c(=O)[nH]c2ccccc2c1=O)C1CN(C)CCO1 (centres unmarked) [Compound 5001, 2-(2,4-dioxo-1,4-dihydroquinazolin-3(2H)-yl)-N-(1-(4-methylmorpholin-2-yl)ethyl)acetamide]	100	–	–
CC(NC(=O)Cn1c(=O)[nH]c2ccccc2c1=O)C1CCCCC1 (centres unmarked) [Compound 5003, N-(1-cyclohexylethyl)-2-(2,4-dioxo-1,4-dihydroquinazolin-3(2H)-yl)acetamide]	100	–	–
O=C(Cn1c(=O)[nH]c2ccccc2c1=O)NCc1ccc(Cn2cccn2)cc1 [Compound 5004, N-(4-((1H-pyrazol-1-yl)methyl)benzyl)-2-(2,4-dioxo-1,4-dihydroquinazolin-3(2H)-yl)acetamide]	100	–	–
O=C(Cn1c(=O)[nH]c2ccccc2c1=O)NCc1ccccn1 [Compound 5005, 2-(2,4-dioxo-1,4-dihydroquinazolin-3(2H)-yl)-N-(pyridin-2-ylmethyl)acetamide]	100	–	–
O=C(Cn1c(=O)[nH]c2ccccc2c1=O)NCc1cccnc1 [Compound 5006, 2-(2,4-dioxo-1,4-dihydroquinazolin-3(2H)-yl)-N-(pyridin-3-ylmethyl)acetamide]	100	–	–
O=C(Cn1c(=O)[nH]c2ccccc2c1=O)NCc1ccncc1 [Compound 5007, 2-(2,4-dioxo-1,4-dihydroquinazolin-3(2H)-yl)-N-(pyridin-4-ylmethyl)acetamide]	100	–	–
O=C(Cn1c(=O)[nH]c2ccccc2c1=O)NCCc1ccccc1Cl [Compound 5008, N-(2-chlorophenethyl)-2-(2,4-dioxo-1,4-dihydroquinazolin-3(2H)-yl)acetamide]	100	–	–
